How the values were obtained:
[1] = target: T1, recombinant human transglutaminase 2 (Homo sapiens, UniProt P21980); experiment: Transglutaminase assay (dansylcadaverine incorporation into dimethylcasein, DCC-assay); assay type: biochemical; conditions: recombinant human TG2 10 nM, dansylcadaverine/dimethylcasein, 37° C.
T1 construct: purchased Zedira T022
T1 sequence (P21980 1-687): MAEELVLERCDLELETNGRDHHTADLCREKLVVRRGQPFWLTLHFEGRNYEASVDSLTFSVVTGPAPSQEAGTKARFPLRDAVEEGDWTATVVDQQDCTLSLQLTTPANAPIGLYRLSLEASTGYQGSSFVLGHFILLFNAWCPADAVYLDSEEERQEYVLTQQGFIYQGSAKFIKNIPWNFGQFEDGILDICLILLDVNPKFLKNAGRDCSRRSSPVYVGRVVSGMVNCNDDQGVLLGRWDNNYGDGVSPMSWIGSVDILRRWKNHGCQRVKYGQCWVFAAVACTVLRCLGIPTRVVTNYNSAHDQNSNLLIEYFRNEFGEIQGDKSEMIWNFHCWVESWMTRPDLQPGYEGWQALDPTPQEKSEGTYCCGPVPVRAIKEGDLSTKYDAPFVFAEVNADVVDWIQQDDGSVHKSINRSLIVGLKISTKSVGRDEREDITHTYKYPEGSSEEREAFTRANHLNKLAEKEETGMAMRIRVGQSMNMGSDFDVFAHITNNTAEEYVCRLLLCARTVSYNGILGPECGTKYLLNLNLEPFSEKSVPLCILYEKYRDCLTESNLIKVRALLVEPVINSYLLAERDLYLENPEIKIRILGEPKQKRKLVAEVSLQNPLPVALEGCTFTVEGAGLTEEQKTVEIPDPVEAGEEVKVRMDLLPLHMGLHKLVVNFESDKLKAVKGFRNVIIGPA
How it was run: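 IC50 derived from fluorescence slope between 20 and 30 min (λex 330 nm, λem 500 nm, 37 °C), expressed relative to a 2% DMSO control. Reaction: 10 nM recombinant human TG2, 4 μM dimethylcasein, 16.7 μM dansylcadaverine, 10 mM CaCl2 and glutathione, pH 8.0.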

[2] = Log D shake flask method (octanol / PBS pH 7.4, HPLC); assay type: physicochemical; conditions: octanol/phosphate-buffered saline (PBS); octanol / PBS pH 7.4, shake flask
Procedure: In order to classify the inventive compounds according to their lipophilicity, Log D values (distribution coefficient) were determined by means of the well-established shake flask method, measuring the partition of a compound between an octanol and phosphate-buffered saline (PBS, pH 7.4) by HPLC.

[3] = Caco-2 permeability assay (CacoReady kit); assay type: in vitro ADME; conditions: human
How it was run: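 Intestinal permeability modelled with kit-supplied Caco-2 barriers, run as the maker specifies; each compound reported as Papp.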

Row | SMILES | IC50 [1] | logD [2] | Papp [3]
1 | COC(=O)/C=C/CC[C@H](NC(=O)[C@H]1COCCN1)C(=O)Nc1cccn(CC(=O)NC2C3CC4CC(C3)CC2C4)c1=O (stereo partly drawn) [III-31, (S,E)-methyl 7-(1-(2-(2-adamantylamino)-2-oxoethyl)-2-oxo-1,2-dihydropyridin-3-ylamino)-6-((R)-morpholine-3-carboxamido)-7-oxohept-2-enoate] | 0.025 to 0.25 µM | 1 to 3 | < 1 ×10⁻⁶ cm/s
2 | COC(=O)/C=C/CC[C@H](NC(=O)c1oc2ccccc2c1C)C(=O)Nc1cccn(CC(=O)NC23CC4CC5C2C[C@@H]2C[C@H]5C(C4)[C@H]3C2)c1=O [III-73, (S,E)-methyl 7-(1-(2-(diamantane-1-amino)-2-oxoethyl)-2-oxo-1,2-dihydropyridin-3-ylamino)-6-(3-methylbenzofuran-2-carboxamido)-7-oxohept-2-enoate] | < 0.025 µM | 3 to 5 | 1 to 10 ×10⁻⁶ cm/s
3 | COC(=O)/C=C/CC[C@H](NC(=O)c1oc2ccccc2c1C)C(=O)Nc1cccn(CC(=O)NC2CC3C=CC2C3)c1=O (stereo partly drawn) [III-66, (S,E)-methyl 7-(1-(2-(bicyclo[2.2.1]hept-5-en-2-ylamino)-2-oxoethyl)-2-oxo-1,2-dihydropyridin-3-ylamino)-6-(3-methylbenzofuran-2-carboxamido)-7-oxohept-2-enoate] | 0.025 to 0.25 µM | 1 to 3 | 1 to 10 ×10⁻⁶ cm/s
4 | COC(=O)/C=C/CC[C@H](NC(=O)c1nc(C2(C)CC2)no1)C(=O)Nc1cccn(CC(=O)NC2C3CC4CC2CC(C(N)=O)(C4)C3)c1=O (stereo partly drawn) [III-167, (S,E)-methyl 7-(1-(2-(4-aminoadamantane-1-carboxamide)-2-oxoethyl)-2-oxo-1,2-dihydropyridin-3-ylamino)-6-(3-(1-methylcyclopropyl)-1,2,4-oxadiazole-5-carboxamido)-7-oxohept-2-enoate] | 0.25 to 1.5 µM | < 1 | < 1 ×10⁻⁶ cm/s

The next lines start with the values.

Row | IC50 [1] | logD [2] | Papp [3] | SMILES
5 | 0.25 to 1.5 µM | 1 to 3 | < 1 ×10⁻⁶ cm/s | Cn1ccnc1C(=O)N[C@@H](CC/C=C/C(=O)c1ccccc1)C(=O)Nc1cccn(CC(=O)NC23CC(C2)C3)c1=O [III-157, (S,E)-N-(1-(1-(2-(bicyclo[1.1.1]pentan-1-ylamino)-2-oxoethyl)-2-oxo-1,2-dihydropyridin-3-ylamino)-1,7-dioxo-7-phenylhept-5-en-2-yl)-1-methyl-1H-imidazole-2-carboxamide]
6 | 0.25 to 1.5 µM | 3 to 5 | < 1 ×10⁻⁶ cm/s | O=C(/C=C/CC[C@H](NC(=O)c1cnc2ccc(OC(F)(F)F)cc2c1O)C(=O)Nc1cccn(CC(=O)NC23CC(C2)C3)c1=O)NC1CC1 [III-144, (S,E)-N7-(1-(2-(bicyclo[1.1.1]pentan-1-ylamino)-2-oxoethyl)-2-oxo-1,2-dihydropyridin-3-yl)-N1-cyclopropyl-6-(4-hydroxy-6-(trifluoromethoxy)quinoline-3-carboxamido)hept-2-enediamide]
7 | 0.025 to 0.25 µM | < 1 | < 1 ×10⁻⁶ cm/s | COC(=O)/C=C/CC[C@H](NC(=O)c1nncs1)C(=O)Nc1cccn(CC(=O)NC23CC(C2)C3)c1=O [III-171, (S,E)-methyl 7-(1-(2-(bicyclo[1.1.1]pentan-1-ylamino)-2-oxoethyl)-2-oxo-1,2-dihydropyridin-3-ylamino)-7-oxo-6-(1,3,4-thiadiazole-2-carboxamido)hept-2-enoate]
8 | < 0.025 µM | 3 to 5 | 1 to 10 ×10⁻⁶ cm/s | COC(=O)/C=C/CC[C@H](NC(=O)c1sc(C(F)(F)F)nc1C)C(=O)Nc1cccn(CC(=O)NC23CC4CC(C)(CC(C)(C4)C2)C3)c1=O [III-123, (S,E)-methyl 7-(1-(2-(3,5-dimethyladamantane-1-amino)-2-oxoethyl)-2-oxo-1,2-dihydropyridin-3-ylamino)-6-(4-methyl-2-(trifluoromethyl)thiazole-5-carboxamido)-7-oxohept-2-enoate]
